Measured values reported in US20240301319A1, “PERFUMING COMPOSITIONS” (FIRMNICH SA, priority 2017, published 2024).

Legend:
[1] = Volatility of perfuming compounds (Tables 4 to 10), with top/middle/bottom note type; assay type: physicochemical
Procedure: In some aspects, the first perfume accord comprises perfuming compounds having a volatility ranging from 70,000 to 100 μg/l in air. In some aspects, perfuming compounds having a volatility ranging from 70,000 to 100 μg/l in air are referred to as “top notes”.
In some aspects, the second perfume accord comprises perfuming compounds having a volatility ranging from 99 to 50 μg/l in air. In some aspects, perfuming compounds having a volatility ranging from 99 to 50 μg/l in air are referred to as “middle notes”.
In some aspects, the third perfume accord comprises perfuming compounds having a volatility ranging from 49 to 0.1 μg/l in air. In some aspects, perfuming compounds having a volatility ranging from 49 to 0.1 μg/l in air are referred to as “bottom notes”.
Tables 4 to 10 describe top, middle and bottom note perfuming compounds for watery, green, fruity, citrus, sweet, gourmand and woody notes respectively.

[2] = Odor threshold and odor value of perfuming compounds (Tables 4 to 10)
[3] = note type (Top/Middle/Bottom) by volatility, perfuming compounds having a green note
[4] = perfuming compounds having a green note
[5] = Table 6, perfuming compounds having a fruity note
[6] = Table 6, perfuming compounds having a fruity note, note type by volatility
[7] = Table 8, perfuming compounds having a sweet note
[8] = Table 8, perfuming compounds having a sweet note, note type by volatility

Compound: CCCCCCCC(=O)OCC [ethyl octanoate]
- Type [1, 3]: Top
- Volatility (μg/l air) [1, 4]: 800.05 μg/l air
- Odor Threshold (μg/l air) [2, 4]: 5.30E−03 μg/l air

Compound: CC(C)(C)C(=O)OCCc1ccccc1 [2-PHENYLETHYL PIVALATE]
- Volatility [1, 5]: 71.44 μg/l air
- Type [1, 6]: Middle
- Volatility [1, 7]: 71.44 μg/l air
- Type [1, 8]: Middle
- Volatility ([1]; Table 9, gourmand note): 71.44 μg/l air
- Type ([1]; Table 9, perfuming compounds having a gourmand note, note type by volatility): Middle
- Odor Threshold [2, 5]: 3.85E−02 μg/l air
- Odor Value [2, 5]: 1.86E+03
- Odor Threshold [2, 7]: 3.85E−02 μg/l air
- Odor Value [2, 7]: 1.86E+03
- Odor Threshold ([2]; Table 9, gourmand note): 3.85E−02 μg/l air

Compound: COc1ccc2ccccc2c1 [2-METHOXYNAPHTHALENE]
- Odor Threshold [2, 7]: 1.02E−05 μg/l air
- Odor Value [2, 7]: 5.00E+06
- Odor Threshold ([2]; Table 9, gourmand note): 1.02E−05 μg/l air

Compound: CCCCCCCC1CCC(=O)O1 (racemic) [(+−)-5-heptyldihydro-2(3H)-furanone]
- Odor Threshold [2, 5]: 3.16E−05 μg/l air
- Odor Value [2, 5]: 1.16E+05
- Odor Threshold [2, 7]: 3.16E−05 μg/l air
- Odor Value [2, 7]: 1.16E+05
- Odor Threshold ([2]; Table 9, gourmand note): 3.16E−05 μg/l air

Compound: CC(C)(C)Cc1cccnc1 [3-(2,2-DIMETHYLPROPYL)PYRIDINE]
- Volatility [1, 5]: 516.21 μg/l air
- Type [1, 6]: TOP (perfuming compounds having a volatility ranging from 70,000 to 100 μg/l in air are referred to as “top notes”)

Compound: CC/C=C\C[C@H]1C(=O)CC[C@@H]1CC(=O)OC (racemic)
- Volatility [1, 5]: 1.59 μg/l air
- Type [1, 6]: Bottom

Compound: C=C1CCCC(C)(C)C1C(=O)OC (racemic)
- Volatility [1, 5]: 1089.25 μg/l air
- Type [1, 6]: TOP (perfuming compounds having a volatility ranging from 70,000 to 100 μg/l in air are referred to as “top notes”)

Compound: O=Cc1ccccc1 [BENZALDEHYDE]
- Volatility [1, 7]: 8207.00 μg/l air
- Type [1, 8]: Top
- Type [1, 3]: Top
- Volatility (μg/l air) [1, 4]: 8207.00 μg/l air

Compound: COC(=O)C=C1CCCC1 [methyl cyclopentylideneacetate]
- Volatility [1, 5]: 1091.46 μg/l air
- Type [1, 6]: TOP (perfuming compounds having a volatility ranging from 70,000 to 100 μg/l in air are referred to as “top notes”)

Compound: CC(=O)OCc1ccccc1 [benzyl acetate]
- Volatility [1, 5]: 507.38 μg/l air
- Type [1, 6]: TOP (perfuming compounds having a volatility ranging from 70,000 to 100 μg/l in air are referred to as “top notes”)

Compound: CC(C)CC(=O)O [3-METHYLBUTANOIC ACID]
- Odor Threshold ([2]; Table 10, woody note): 2.23E−04 μg/l air

Compound: CC1CCC(=O)O1 (racemic) [(+−)-4-PENTANOLIDE]
- Volatility [1, 5]: 2355.15 μg/l air
- Type [1, 6]: TOP (perfuming compounds having a volatility ranging from 70,000 to 100 μg/l in air are referred to as “top notes”)
- Volatility (μg/l air) ([1]; Table 7, citrus note): 2355.15 μg/l air
- Type ([1]; Table 7, citrus note, top, middle or bottom note): Top

Compound: CCCCCCC(=O)OCC [ethyl heptanoate]
- Volatility [1, 5]: 3052.89 μg/l air
- Type [1, 6]: TOP (perfuming compounds having a volatility ranging from 70,000 to 100 μg/l in air are referred to as “top notes”)

Compound: CCCc1ccc(OC)cc1 [1-METHOXY-4-PROPYLBENZENE]
- Volatility [1, 5]: 629.29 μg/l air
- Type [1, 6]: TOP (perfuming compounds having a volatility ranging from 70,000 to 100 μg/l in air are referred to as “top notes”)

Compound: CCCCCC(C)=O [2-HEPTANONE]
- Volatility [1, 5]: 26409.73 μg/l air
- Type [1, 6]: TOP (perfuming compounds having a volatility ranging from 70,000 to 100 μg/l in air are referred to as “top notes”)

Compound: CC(=O)OCCC(C)CC(C)(C)C (stereo not shown) [3,5,5-TRIMETHYLHEXYL ACETATE]
- Volatility [1, 5]: 1461.80 μg/l air
- Type [1, 6]: TOP (perfuming compounds having a volatility ranging from 70,000 to 100 μg/l in air are referred to as “top notes”)

Compound: CCOC(=O)/C(C)=C/C(C)C [ethyl (2E)-2,4-dimethyl-2-pentenoate]
- Volatility [1, 5]: 1618.37 μg/l air
- Type [1, 6]: TOP (perfuming compounds having a volatility ranging from 70,000 to 100 μg/l in air are referred to as “top notes”)

Compound: CCOC(=O)C(C)C [ETHYL ISOBUTYRATE]
- Volatility [1, 5]: 132964.09 μg/l air
- Type [1, 6]: TOP (perfuming compounds having a volatility ranging from 70,000 to 100 μg/l in air are referred to as “top notes”)

Compound: CCOc1cc(C=O)ccc1O [3-ethoxy-4-hydroxybenzaldehyde]
- Volatility [1, 7]: 0.11 μg/l air
- Type [1, 8]: Bottom
